Holding throughout (assay type): functional, cell-based
In one assay the test system is T-24. Put plainly: The compound was evaluated for antitumoral activity against human cancer cell line T24 after 72 hr of incubation. As to conditions: T-24, 72 h.
A further assay concerns SW480. In words: The compound was evaluated for antitumoral activity against human cancer cell line SW480 after 72 hr of incubation. As to conditions: SW480, 72 h.
Another assay relates to L1210/C. In words: The compound was evaluated for antitumoral activity against mouse leukemia cell line L1210/c after 72 hr of incubation. As to conditions: L1210, 72 h.
For another assay, the system named is CCRF-CEM. Put plainly: The compound was evaluated for antitumoral activity against human leukemia cell line CCRF CEM after 72 hr of incubation.
A further assay concerns SK-MEL-28. In words: The compound was evaluated for antitumoral activity against human melanoma cell line P36 after 72 hr of incubation. As to conditions: SK-MEL-28, 72 h.

The text below walks through data of ChEMBL document CHEMBL1127159, “Preparation and biological evaluation of -fluoromethyl--methylene--butyrolactone and -butyrolactam” (Bioorg Med Chem Lett, 1993).

Each structure is given as a SMILES string. Values after ≈ are worked out from the molar mass of the structure shown.

In general, IC50 refers to the midpoint of a concentration-inhibition curve. Higher therefore signals lower potency. With `C=C1CC(C(F)F)OC1=O` (stereo not given), the IC50 stood at 0.5 µg/mL (≈ 3.38 µM) in the assay on T-24; 4 µg/mL (≈ 27 µM) in the assay on SW480; 3 µg/mL (≈ 20.3 µM) in the assay with L1210/C; 4 µg/mL (≈ 27 µM) in the assay with CCRF-CEM; 2 µg/mL (≈ 13.5 µM) in the assay on SK-MEL-28.

`O=c1[nH]cc(F)c(=O)[nH]1` [FLUOROURACIL]: the IC50 in the assay with T-24 was 6 µg/mL (≈ 46.1 µM); in the assay with SW480, 6 µg/mL (≈ 46.1 µM); in the assay on L1210/C, 0.2 µg/mL (≈ 1.54 µM); with CCRF-CEM, 4 µg/mL (≈ 30.8 µM); in the assay on SK-MEL-28 it was 11 µg/mL (≈ 84.6 µM).
